Data as given in PubChem BioAssay (NCI).
Where “and” joins values, the source holds several entries; their conditions need not be identical. Equal values may be shown once.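 Values below derive from 48-hour exposures of cells grown in 96-well plates, with endpoints linearly interpolated between the two concentrations bracketing the appropriate inhibition level. GI50 = concentration required for 50% inhibition of growth. TGI is the concentration that stops growth completely.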

Key:
Assay in all cases: inhibition of tumour cell growth, NCI panel, 48 h
SK-MEL-2 melanoma = test system: SK-MEL-2 melanoma
MALME-3M melanoma = test system: MALME-3M melanoma
CCRF-CEM leukemia = test system: CCRF-CEM leukemia
HT29 colon = test system: HT29 colon
NCI-H522 lung = test system: NCI-H522 lung
SK-OV-3 ovarian = test system: SK-OV-3 ovarian
SNB-19 CNS = test system: SNB-19 CNS
SNB-75 CNS = test system: SNB-75 CNS
NCI-H460 lung = test system: NCI-H460 lung
IGROV1 ovarian = test system: IGROV1 ovarian

| SMILES | TGI (SK-MEL-2 melanoma) | TGI (MALME-3M melanoma) | TGI (CCRF-CEM leukemia) | TGI (HT29 colon) | TGI (NCI-H522 lung) | TGI (SK-OV-3 ovarian) | TGI (SNB-19 CNS) | TGI (SNB-75 CNS) | TGI (NCI-H460 lung) | TGI (IGROV1 ovarian) | GI50 (SK-MEL-2 melanoma) [µM] | GI50 (MALME-3M melanoma) [µM] | GI50 (CCRF-CEM leukemia) [µM] | GI50 (HT29 colon) | GI50 (NCI-H522 lung) [µM] | GI50 (SK-OV-3 ovarian) [µM] | GI50 (SNB-19 CNS) [µM] | GI50 (SNB-75 CNS) [µM] | GI50 (NCI-H460 lung) [µM] | GI50 (IGROV1 ovarian) |
| --- | --- | --- | --- | --- | --- | --- | --- | --- | --- | --- | --- | --- | --- | --- | --- | --- | --- | --- | --- | --- |
| COc1ccc(C[C@H]2NC[C@H](O)[C@H]2OC(C)=O)cc1 | 0.398 µM | 0.708 µM | 0.863 µM | 0.179 µM | 0.118 µM | 0.895 µM | 0.289 µM | 0.0668 µM | 0.611 µM | 0.153 µM | – | – | – | – | – | – | – | – | – | – |
| COC(=O)c1ccc(/C=C/S(=O)(=O)c2ccccc2)cc1 | > 100 µM | > 100 µM | > 100 µM | > 100 µM | > 100 µM | > 100 µM | > 100 µM | > 100 µM | > 100 µM | > 100 µM | – | – | – | – | – | – | – | – | – | – |
| C=C(C)[C@@H]1CC[C@]2(CN)CC[C@]3(C)[C@H](CC[C@@H]4[C@@]5(C)CCC(N)[C@@](C)(CO)[C@@H]5CC[C@]43C)[C@@H]12 (stereo not given in full) | 3.44 µM | 3.38 µM | 3.65 µM | 3.12 µM | 3.5 µM | 3.2 µM | 3.34 µM | 3.07 µM | 3.51 µM | 3.65 µM | 1.89 | 1.86 | 1.71 | 1.59 µM | 1.86 | 1.8 | 1.87 | 1.62 | 1.87 | 1.92 µM |
| COc1ccc2c(c1)c(-c1ccc(-c3cn(C)c4ccc(OC)cc34)o1)cn2C | 5.28 µM | > 100 µM | 78.4 µM | > 100 µM | 10 µM | > 100 µM | > 100 µM | 53.7 µM | > 100 µM | > 100 µM | 2.13 | 52.8 | 6.46 | 22 µM | 3.42 | > 100 | 29.8 | 13.6 | 9.89 | 29.6 µM |
| CCOc1ccc(N=Cc2ccc3ccccc3n2)cc1 | > 100 µM | > 100 µM | > 100 µM | > 100 µM | > 100 µM | > 100 µM | > 100 µM | > 86.3 µM | > 100 µM | > 100 µM | – | – | – | – | – | – | – | – | – | – |
| Cc1ccc(-c2cc(=O)c3cc(C)c(C)c(C(=O)O)c3o2)cc1[N+](=O)[O-] | > 100 µM | > 100 µM | > 100 µM | > 100 µM | > 100 µM | > 100 µM | > 100 µM | > 100 µM | > 100 µM | > 100 µM | – | – | – | – | – | – | – | – | – | – |
| CCCCCCC/C=C1\CCC(CN(C)C)C1=O (stereo not given) | 29.8 µM | 25.3 µM | 13 µM | 29.9 µM | 11.2 µM | 43 µM | 33.8 µM | 33.1 µM | 40.5 µM | 36.3 µM | – | – | – | – | – | – | – | – | – | – |
| CN[C@H]1CC[C@]23C[C@]24CC[C@]2(C)[C@@H]([C@H](C)N(C)C)CC[C@@]2(C)[C@@H]4CC[C@H]3C1(C)C | 40 µM | 32.6 µM | 98.8 µM | 14.2 µM | 34.1 µM | 38.2 µM | 43.3 µM | 33.2 µM | 37.2 µM | 35.1 µM | – | – | – | – | – | – | – | – | – | – |
| COC(=O)CCCNC(=O)C(=O)c1c(O)c(O)c(C(C)C)c2cc(C)c(-c3c(C)cc4c(C(C)C)c(O)c(O)c(C(=O)C(=O)NCCCC(=O)OC)c4c3O)c(O)c12 | 2.93 µM | 12.9 µM | > 32.5 µM | 3.81 µM | 1.9 µM | 2.57 µM | 7.1 µM | 19.1 µM | 3.74 µM | 13 µM | 0.858 | 0.902 | 0.331 | 0.542 µM | 0.379 | 0.855 | 0.167 | 1.43 | 0.345 | 0.499 µM |
| Cc1ccccc1C[P+](c1ccccc1)(c1ccccc1)c1ccccc1 | 68.4 µM | > 100 µM | > 100 µM | 14.8 µM | 5.73 µM | 9.27 µM | > 100 µM | 16.2 µM | 12.9 µM | > 100 µM | 1.29 | 4.72 | 2.04 | 0.849 µM | 0.78 | 1.64 | 2.07 | 1.21 | 1.73 | 2.42 µM |
| N/C(=N\N=C\c1ccc(O)c(O)c1)NO | > 100 µM | > 100 µM | > 100 µM | > 100 µM | > 100 µM | > 100 µM | > 100 µM | > 100 µM | > 100 µM | > 100 µM | – | – | – | – | – | – | – | – | – | – |
| O=C1c2ccccc2-c2c1c1ccc([N+](=O)[O-])cc1c(=O)n2CCCn1ccnc1 | 3.27 µM | 1.97 µM | 0.785 µM | 10.9 µM | 5.68 µM | > 39.5 µM | > 34.4 µM | 0.862 µM | 7.98 µM | 2.71 µM | 1.06 | 0.148 | – | < 0.0418 µM | 1.08 | 9.63 | 0.358 | – | < 0.0275 | 0.696 µM |
| CC(CCC(=O)O)c1ccc(Br)cc1 (stereo not given) | > 100 µM | > 100 µM | > 100 µM | > 100 µM | > 100 µM | > 100 µM | > 100 µM | > 100 µM | > 100 µM | > 100 µM | – | – | – | – | – | – | – | – | – | – |
| N#Cc1ccc(NC(=O)Nc2nc3ccc(OC(F)(F)F)cc3s2)cc1 | 4.25 µM | 5.92 µM | > 100 µM | 10 µM | 3.09 µM | 11.1 µM | 13.9 µM | 7.19 µM | 7.81 µM | 16.1 µM | 1.78 | 0.843 | 1.51 | 2.07 µM | 0.427 | 2.65 | 1.5 | 1.84 | 0.605 | 2 µM |
| Clc1ccc(COC(Cn2ccnc2)c2ccc(Cl)cc2Cl)c(Cl)c1 (stereo not given) | 32.6 µM and 28.8 µM | 17.1 µM and 29.6 µM and 25.1 µM | 21.2 µM and 24.8 µM and 19.8 µM | 15.4 µM and 21.1 µM and 15.5 µM | 23.7 µM and 22.8 µM | 9.92 µM and 27.5 µM and 27.4 µM | 14.6 µM and 29.6 µM and 29.3 µM | 12.6 µM and 28.8 µM and 16.2 µM | 19.3 µM and > 100 µM and 35 µM | 15 µM and 24.7 µM and 10.9 µM | – | 4.52 | 4.55 | 3.55 µM and 7.53 µM and 3.17 µM | – | 2.99 | 3.24 | – | 4.38 | 3.59 µM and 10.6 µM and 1.37 µM |
| COC1C(O)CC(OC2CC(OC3CC(O[C@@H]4C(=O)c5c(cc6cc(OC7CC(OC8CC(O)C(O)C(C)O8)C(O)C(C)O7)c(C)c(O)c6c5O)CC4[C@H](OC)[C@@H](O)C(C)=O)OC(C)C3O)OC(C)C2O)OC1C (stereo not given in full) | 0.0492 µM | 1.28 µM | > 33.3 µM | 0.0295 µM | 0.0648 µM | > 33.3 µM | > 33.3 µM | 3.32 µM | > 33.3 µM | > 33.3 µM | 0.0167 | 0.0181 | 0.0233 | 0.00995 µM | 0.016 | 0.0211 | 0.0099 | 0.0184 | 0.00673 | 0.0197 µM |
| COc1ccc(-c2cc(-c3ccc(Cl)cc3)nc(SCCCCCCC(=O)NO)n2)cc1 | > 50 µM | 5.5 µM | 14.4 µM | 16.6 µM | 7.86 µM | 8.54 µM | 23.6 µM | 23.8 µM | 8.9 µM | 12.5 µM | 5.73 | 1.14 | 0.861 | 1.71 µM | 1.2 | 1.62 | 1.67 | 1.36 | 1.29 | 1.41 µM |
| CCOC(=O)C(=O)C(/C(=N/N(C)C)C(=O)Nc1ccc(C)cc1C)c1nc2ccccc2[nH]c1=O (stereo not given) | > 100 µM | > 100 µM | > 100 µM | > 100 µM | > 100 µM | > 100 µM | > 100 µM | > 100 µM | > 100 µM | > 100 µM | – | – | – | – | – | – | – | – | – | – |
| Cc1cc(C)c(O)c(CNCCCNCc2cc(C)cc(C)c2O)c1 | 4.5 µM | 3.29 µM | 15.3 µM | 10.7 µM | 14.1 µM | 13.6 µM | 15.1 µM | 2.78 µM | 4.65 µM | 18.5 µM | 2.15 | 1.73 | 3.82 | 3.02 µM | 3.41 | 3.62 | 3.88 | 1.39 | 2.13 | 4.52 µM |
| C/C=C(\C)C(=O)N1c2ccccc2CC1c1c(C)[nH]c2ccccc12 (stereo not given) | 69.6 µM | > 100 µM | > 100 µM | > 100 µM | > 100 µM | > 100 µM | > 100 µM | > 100 µM | > 100 µM | > 100 µM | – | – | – | – | – | – | – | – | – | – |
| COc1ccc(C(=O)c2cc(C)c(OC)c(C)c2)c(OC)c1N(C(=O)CCl)C(=O)CCl | 19.7 µM | 25.4 µM | > 37.8 µM | 22.5 µM | 0.906 µM | > 83.8 µM | > 71.1 µM | 27.3 µM | 1.3 µM | 3.83 µM | 0.0522 | 0.0667 | 0.166 | 0.307 µM | 0.0349 | 0.0514 | 0.05 | 0.0274 | 0.0386 | 0.0738 µM |
| O=C1CCC(N2C(=O)c3cccc(NCCOCCOCCNC(=O)c4cc5c(o4)C(=O)c4ccccc4C5=O)c3C2=O)C(=O)N1 (stereo not given) | 6.46 µM | 0.448 µM | 28.9 µM | > 100 µM | 4.38 µM | 7.78 µM | 3.52 µM | 4.16 µM | 3.87 µM | 4.29 µM | 2.36 | 0.184 | 3.45 | 3.35 µM | 1.71 | 3.09 | 1.55 | 2.47 | 1.97 | 1.87 µM |
